# From US20160262390A1, “FIELD APPLICATION OF SUGARS TO INCREASE CROP YIELD” (Minn-Dak Farmers Cooperative, priority 2015, published 2016)
# How the values were obtained:
# soybeans = assay: Pre-planting sugar application on soybeans, Foxhome; assay type: in vivo, soybean; details: for Yield / Yield Increase Compared to Check: MN; for number of treatments showing yield improvement compared to check treatment 31: six rates (25-250 pounds/Acre) per sugar, thirty in all
# Description: (§1) The field trials were conducted simultaneously in two different planting locations for each of the crops. One location was near the community of Foxhome in Wilkin County, Minnesota (hereafter referred to as “Foxhome”) while the second location was near the community of Hickson in Cass County, North Dakota (hereafter referred to as “Hickson”). The Foxhome and Hickson locations are on opposite sides of the Red River along the border of Minnesota and North Dakota and separated by a distance exceeding 40 miles. Generally, the Foxhome location has heavier clay loam soil conditions while Hickson has sandy loam soil conditions.
# (§2) At each of the Foxhome and Hickson locations, a total of thirty two (32) treatments were conducted for each crop (sugarbeets, soybeans, corn, wheat). Each treatment was replicated four times arranged in a Randomized Complete Block (RCB) Design in the same field. Each replication consisted of a plot measuring twenty five (25) feet in length and eleven (11) feet in width. In selecting the particular seed types for evaluation, popular commercial varieties to the region were utilized. For the row crops (sugarbeets, soybeans, corn) each replication included a width of six (6) rows with twenty two (22) inch row spacing and having a row length of twenty five (25) feet. The wheat was planted in accordance with standard commercial practices. To reduce/eliminate any treatment impacts between adjacent plots for the crops, only the four (4) interior rows of each plot were treated and evaluated for row crops, while for wheat, only the interior 7.33 feet of each plot were treated and evaluated. With the exception of the treatment program applied to the individual plots, which will be discussed below, conventional commercial growing practices for each planting location were otherwise followed during the field trials. While the individual plots at the same location, Hickson or Foxhome, experienced essentially the same growing conditions throughout the season, there were various differences associated with localized precipitation, general growing conditions, soil classification and the like, which contributed to performance differences between the Hickson and Foxhome locations.
# (§3) The treatment regimen at each location for each of the tested crops included two (2) untreated treatments (Treatments 31 and 32) in which no sugar was applied and constitute the control elements. […] Six (6) treatments (Treatments 13-18) included the liquid application of high fructose corn syrup (hereafter “HFCS”) at varying rates. Six treatments (Treatments 19-24) included the liquid application of dextrose (hereafter “LIQDEX”) at varying rates. Six (6) treatments (Treatments 25-30) included the application of powdered cellulose (hereafter “POWCEL”) at varying rates. For the sugar applied in a solid form, granulated or powdered, field application was conducted via conventional broadcast spreading. For the sugar applied in a liquid form, a liquid concentrate was mixed and diluted with water in a tank and a conventional sprayer was configured such that the liquid was sprayed so as to have the same sugar equivalent (measured in pounds/per acre) as the sugar in solid form. Regardless of whether the sugar was applied as a solid or liquid, the sugar was applied directly onto the soil before spring tillage, lightly worked into the ground and followed by planting of the crop seed in the treated ground. A summary of application rates for each plot treatments are contained in Table 7 below and were used consistently with each of the crops (sugarbeets, soybeans, corn, wheat).
# To test the impact of pre-planting application rates and sugar source on soybeans, identical field trials using Syngenta brand soybean seed were conducted at the Foxhome and Hickson locations. Planting of the soybean seed and harvest of the soybeans were conducted on approximately the same dates so as to have essentially the same growing season. […]
# sugarbeets = assay: Pre-planting sugar application on sugarbeets, Foxhome; assay type: in vivo, sugarbeet; details: for Recoverable Sugar Yield / Recoverable Sugar Yield Increase Compared to Check Average / Sugarbeet Yield: MN; for number of treatments showing yield improvement compared to check average: six rates (25-250 pounds/Acre) per sugar, thirty in all
# Description: as §1
# as §2, with “trials.” for “trials. While the individual plots at the same location, Hickson or Foxhome, experienced essentially the same growing conditions throughout the season, there were various differences associated with localized precipitation, general growing conditions, soil classification and the like, which contributed to performance differences between the Hickson and Foxhome locations.”
# as §3
# To test the impact of pre-planting application rates and sugar source on sugarbeets, identical field trials using Crystal® brand ACH 260 sugarbeet seed were conducted at the Foxhome and Hickson locations. Planting of the sugarbeet seed and harvest of the sugarbeets were conducted on as close to the same dates as practical so as to have essentially the same length growing season.
# wheat = assay: Pre-planting sugar application on wheat, Foxhome; assay type: in vivo; details: for Yield / Yield Increase Compared to Check Average: MN; for number of treatments showing yield improvement compared to check average: six rates (25-250 pounds/Acre) per sugar, thirty in all
# Description: as §1, §2, §3
# To test the impact of pre-planting application rates and sugar source on wheat, identical field trials using Westbred Mayville wheat seed were conducted at the Foxhome and Hickson locations. Planting of the wheat seed and harvest of the wheat were conducted on the same dates so as to have essentially the same growing season. […]
# [1] = test system: microflora that are present in the soil; assay: Solvita Soil CO2-Burst test of pre-emergent soil samples, soybean trial in Hickson
# Description: In an attempt to quantify this boost, soil samples were taken during some of the previously discussed trials. These samples were tested using a standard Solvita Soil CO2-Burst Test Kit to generate measurements associated with CO2 respiration which can be used as an indicator of active soil carbon, soil microbial biomass and the potential for nutrient release beneficial to crop production. Generally, the higher the measured levels of CO2, the more advantageous the soil is for crop production.
# The results of the CO2-Burst Testing are summarized in Table 17 below (using the replication designations from Table 7): […]
compound,measurement,setting,value
"OC[C@H]1O[C@@](CO)(O[C@H]2O[C@H](CO)[C@@H](O)[C@H](O)[C@H]2O)[C@@H](O)[C@@H]1O [GS, sucrose]",Yield,soybeans; pre-planting 25 pounds/Acre,70.03 Bushels/Acre
same,Yield Increase Compared to Check,soybeans; pre-planting 25 pounds/Acre,2.17%
same,Yield,soybeans; pre-planting 50 pounds/Acre,70.87 Bushels/Acre
same,Yield Increase Compared to Check,soybeans; pre-planting 50 pounds/Acre,3.40%
same,Yield,soybeans; pre-planting 100 pounds/Acre,70.78 Bushels/Acre
same,Yield Increase Compared to Check,soybeans; pre-planting 100 pounds/Acre,3.27%
same,Yield,soybeans; pre-planting 150 pounds/Acre,71.45 Bushels/Acre
same,Yield Increase Compared to Check,soybeans; pre-planting 150 pounds/Acre,4.25%
same,Yield,soybeans; pre-planting 200 pounds/Acre,67.22 Bushels/Acre
same,Yield Increase Compared to Check,soybeans; pre-planting 200 pounds/Acre,−1.93%
same,Yield,soybeans; pre-planting 250 pounds/Acre,66.99 Bushels/Acre
same,Yield Increase Compared to Check,soybeans; pre-planting 250 pounds/Acre,−2.26%
same,number of treatments showing yield improvement compared to check treatment 31,soybeans,four of the six
same,Recoverable Sugar Yield,sugarbeets; pre-planting 25 pounds/Acre,8856 Pounds/Acre
same,Recoverable Sugar Yield Increase Compared to Check Average,sugarbeets; pre-planting 25 pounds/Acre,3.25%
same,Sugarbeet Yield,sugarbeets; pre-planting 25 pounds/Acre,32.03 Tons/Acre
same,Recoverable Sugar Yield,sugarbeets; pre-planting 50 pounds/Acre,8707 Pounds/Acre
same,Recoverable Sugar Yield Increase Compared to Check Average,sugarbeets; pre-planting 50 pounds/Acre,1.52%
same,Sugarbeet Yield,sugarbeets; pre-planting 50 pounds/Acre,32.27 Tons/Acre
same,Recoverable Sugar Yield,sugarbeets; pre-planting 100 pounds/Acre,8100 Pounds/Acre
same,Recoverable Sugar Yield Increase Compared to Check Average,sugarbeets; pre-planting 100 pounds/Acre,−5.56%
same,Sugarbeet Yield,sugarbeets; pre-planting 100 pounds/Acre,30.85 Tons/Acre
same,Recoverable Sugar Yield,sugarbeets; pre-planting 150 pounds/Acre,9080 Pounds/Acre
same,Recoverable Sugar Yield Increase Compared to Check Average,sugarbeets; pre-planting 150 pounds/Acre,5.86%
same,Sugarbeet Yield,sugarbeets; pre-planting 150 pounds/Acre,31.94 Tons/Acre
same,Recoverable Sugar Yield,sugarbeets; pre-planting 200 pounds/Acre,8345 Pounds/Acre
same,Recoverable Sugar Yield Increase Compared to Check Average,sugarbeets; pre-planting 200 pounds/Acre,−2.70%
same,Sugarbeet Yield,sugarbeets; pre-planting 200 pounds/Acre,30.69 Tons/Acre
same,Recoverable Sugar Yield,sugarbeets; pre-planting 250 pounds/Acre,9002 Pounds/Acre
same,Recoverable Sugar Yield Increase Compared to Check Average,sugarbeets; pre-planting 250 pounds/Acre,4.96%
same,Sugarbeet Yield,sugarbeets; pre-planting 250 pounds/Acre,31.80 Tons/Acre
same,number of treatments showing yield improvement compared to check average,sugarbeets,four of the six
same,Yield,wheat; pre-planting 25 pounds/Acre,73.58 Bushels/Acre
same,Yield Increase Compared to Check Average,wheat; pre-planting 25 pounds/Acre,13.55%
same,Yield,wheat; pre-planting 50 pounds/Acre,70.01 Bushels/Acre
same,Yield Increase Compared to Check Average,wheat; pre-planting 50 pounds/Acre,8.04%
same,Yield,wheat; pre-planting 100 pounds/Acre,59.45 Bushels/Acre
same,Yield Increase Compared to Check Average,wheat; pre-planting 100 pounds/Acre,−8.26%
same,Yield,wheat; pre-planting 150 pounds/Acre,66.65 Bushels/Acre
same,Yield Increase Compared to Check Average,wheat; pre-planting 150 pounds/Acre,2.85%
same,Yield,wheat; pre-planting 200 pounds/Acre,59.64 Bushels/Acre
same,Yield Increase Compared to Check Average,wheat; pre-planting 200 pounds/Acre,−7.96%
same,Yield,wheat; pre-planting 250 pounds/Acre,59.73 Bushels/Acre
same,Yield Increase Compared to Check Average,wheat; pre-planting 250 pounds/Acre,−7.82%
same,number of treatments showing yield improvement compared to check average,wheat,three of the six
same,CO2 Burst ppm,[1]; sugar amount 50 pounds/acre,63 ppm
same,CO2 Increase as Compared to Check Average,[1]; sugar amount 50 pounds/acre,38.46%
same,CO2 Burst ppm,[1]; sugar amount 150 pounds/acre,75 ppm
same,CO2 Increase as Compared to Check Average,[1]; sugar amount 150 pounds/acre,64.84%
same,CO2 Burst ppm,[1]; sugar amount 250 pounds/acre,53 ppm
same,CO2 Increase as Compared to Check Average,[1]; sugar amount 250 pounds/acre,16.48%
"OC[C@H]1O[C@@](CO)(O[C@H]2O[C@H](CO)[C@@H](O)[C@H](O)[C@H]2O)[C@@H](O)[C@@H]1O [LIQSUC, sucrose]",Yield,soybeans; pre-planting 25 pounds/Acre,67.82 Bushels/Acre
same,Yield Increase Compared to Check,soybeans; pre-planting 25 pounds/Acre,−1.05%
same,Yield,soybeans; pre-planting 50 pounds/Acre,72.08 Bushels/Acre
same,Yield Increase Compared to Check,soybeans; pre-planting 50 pounds/Acre,5.16%
same,Yield,soybeans; pre-planting 100 pounds/Acre,71.28 Bushels/Acre
same,Yield Increase Compared to Check,soybeans; pre-planting 100 pounds/Acre,4.00%
same,Yield,soybeans; pre-planting 150 pounds/Acre,70.57 Bushels/Acre
same,Yield Increase Compared to Check,soybeans; pre-planting 150 pounds/Acre,2.96%
same,Yield,soybeans; pre-planting 200 pounds/Acre,68.33 Bushels/Acre
same,Yield Increase Compared to Check,soybeans; pre-planting 200 pounds/Acre,−0.31%
same,Yield,soybeans; pre-planting 250 pounds/Acre,72.14 Bushels/Acre
same,Yield Increase Compared to Check,soybeans; pre-planting 250 pounds/Acre,5.25%
same,number of treatments showing yield improvement compared to check treatment 31,soybeans,four of the six
same,Recoverable Sugar Yield,sugarbeets; pre-planting 25 pounds/Acre,8629 Pounds/Acre
same,Recoverable Sugar Yield Increase Compared to Check Average,sugarbeets; pre-planting 25 pounds/Acre,0.61%
same,Sugarbeet Yield,sugarbeets; pre-planting 25 pounds/Acre,32.17 Tons/Acre
same,Recoverable Sugar Yield,sugarbeets; pre-planting 50 pounds/Acre,8627 Pounds/Acre
same,Recoverable Sugar Yield Increase Compared to Check Average,sugarbeets; pre-planting 50 pounds/Acre,0.58%
same,Sugarbeet Yield,sugarbeets; pre-planting 50 pounds/Acre,31.21 Tons/Acre
same,Recoverable Sugar Yield,sugarbeets; pre-planting 100 pounds/Acre,8592 Pounds/Acre
same,Recoverable Sugar Yield Increase Compared to Check Average,sugarbeets; pre-planting 100 pounds/Acre,0.17%
same,Sugarbeet Yield,sugarbeets; pre-planting 100 pounds/Acre,31.79 Tons/Acre
same,Recoverable Sugar Yield,sugarbeets; pre-planting 150 pounds/Acre,8646 Pounds/Acre
same,Recoverable Sugar Yield Increase Compared to Check Average,sugarbeets; pre-planting 150 pounds/Acre,0.80%
same,Sugarbeet Yield,sugarbeets; pre-planting 150 pounds/Acre,30.26 Tons/Acre
same,Recoverable Sugar Yield,sugarbeets; pre-planting 200 pounds/Acre,8473 Pounds/Acre
same,Recoverable Sugar Yield Increase Compared to Check Average,sugarbeets; pre-planting 200 pounds/Acre,−1.21%
same,Sugarbeet Yield,sugarbeets; pre-planting 200 pounds/Acre,30.23 Tons/Acre
same,Recoverable Sugar Yield,sugarbeets; pre-planting 250 pounds/Acre,8424 Pounds/Acre
same,Sugarbeet Yield,sugarbeets; pre-planting 250 pounds/Acre,31.04 Tons/Acre
same,number of treatments showing yield improvement compared to check average,sugarbeets,four of the six
same,Yield,wheat; pre-planting 25 pounds/Acre,57.25 Bushels/Acre
same,Yield Increase Compared to Check Average,wheat; pre-planting 25 pounds/Acre,−11.65%
same,Yield,wheat; pre-planting 50 pounds/Acre,68.06 Bushels/Acre
same,Yield Increase Compared to Check Average,wheat; pre-planting 50 pounds/Acre,5.03%
same,Yield,wheat; pre-planting 100 pounds/Acre,67.59 Bushels/Acre
same,Yield Increase Compared to Check Average,wheat; pre-planting 100 pounds/Acre,4.31%
same,Yield,wheat; pre-planting 150 pounds/Acre,65.84 Bushels/Acre
same,Yield Increase Compared to Check Average,wheat; pre-planting 150 pounds/Acre,1.60%
same,Yield,wheat; pre-planting 200 pounds/Acre,62.49 Bushels/Acre
same,Yield Increase Compared to Check Average,wheat; pre-planting 200 pounds/Acre,−3.56%
same,Yield,wheat; pre-planting 250 pounds/Acre,63.20 Bushels/Acre
same,Yield Increase Compared to Check Average,wheat; pre-planting 250 pounds/Acre,−2.47%
same,number of treatments showing yield improvement compared to check average,wheat,three of the six
same,CO2 Burst ppm,[1]; sugar amount 50 pounds/acre,49 ppm
same,CO2 Increase as Compared to Check Average,[1]; sugar amount 50 pounds/acre,7.69%
same,CO2 Burst ppm,[1]; sugar amount 150 pounds/acre,45 ppm
same,CO2 Increase as Compared to Check Average,[1]; sugar amount 150 pounds/acre,−1.10%
same,CO2 Burst ppm,[1]; sugar amount 250 pounds/acre,55 ppm
same,CO2 Increase as Compared to Check Average,[1]; sugar amount 250 pounds/acre,20.88%
